Experimental data: US20240066085A1, “MATRIX METALLOPROTEASE 1 EXPRESSION INHIBITOR, SKIN EXTERNAL AGENT, AND USE FOR INHIBITION OF MATRIX METALLOPROTEASE 1 EXPRESSION” (NATIONAL UNIVERSITY CORPORATION KOBE UNIVERSITY, priority 2020, published 2024)

Legend:
[1] = tested on: ERK and MEK phosphorylation; experiment: UVA-induced phosphorylation of ERK and MEK in HaCaT after PKCδ inhibitor pretreatment; format: cell-based, human; settings: HaCaT pretreated with PKCδ inhibitor, then UVA irradiation
Method: (§1) The present inventors clarified an expression mechanism of MMP-1 through an experiment. […] The experiment was performed by irradiating HaCaT (epidermal keratinocyte cell line established from a human adult under special ca 2+ concentration and temperature conditions) with ultraviolet rays (UVA).
However, when a pretreatment of adding rotterlin being a PKCδ inhibitor to HaCaT was performed, and then UVA irradiation was performed on HaCaT, induced expression of phosphorylation of ERK and MEK was suppressed. Therefore, it was clarified that: the activity of PKCδ induces phosphorylation of MEK and ERK downstream of PKC6; and expression of MMP-1 is promoted through c-Jun and the like.

MMP-1 expression = experiment: UVA-induced MMP-1 expression in HaCaT after PKCδ inhibitor pretreatment; format: cell-based, human; settings: HaCaT pretreated with PKCδ inhibitor, then UVA irradiation
Method: as §1
When UVA irradiation is performed on HaCaT, the MMP-1 expression amount increases in an irradiation-dependent manner. […] Therefore, it was clarified that PKCδ is involved in expression pathway of MMP-1.

For `CC(=O)c1c(O)c(C)c(O)c(Cc2c(O)c3c(c(C(=O)/C=C/c4ccccc4)c2O)OC(C)(C)C=C3)c1O` [rotterlin], the “induced expression of phosphorylation of ERK and MEK” value [1] was “suppressed” and the MMP-1 expression (MMP-1 expression) was “significantly suppressed”.
